# Measurements: the supplement of paper PMC10307832
# Compound: CC1CC(=O)N(C2=CN=C(N=C2N1C3CCCC3)NC4=C(C=C(C=C4)C(=O)NC5CCN(CC5)C)OC)C [NPK76-II-72-1] + CC(=O)c1c(C)c2cnc(Nc3ccc(N4CCNCC4)cn3)nc2n(C2CCCC2)c1=O [Palbociclib] (partner 0.5 µM)
# Assay: relative viability (nuclei count vs DMSO), 5 days (fraction); higher = more cells survive
# Conditions: first compound 0.01 µM
# How it was run: (§1)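 Relative viability is defined as nuclei in treated wells over nuclei in vehicle wells. Duplicate plates were run and medians reported. Lung cancer cell lines in 1536-well plates were dosed by pin tool one day after seeding, with one drug or with a fixed anchor-drug dose plus five library-drug doses (not always all listed) in √10 steps, and nuclei were counted after 5 days.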
row,Cell Line,relative viability
1,NCI-H2405,0.528
2,HOP-62,0.397
3,HCC-44,0.982
4,SW 900,0.53
5,LU99A,0.404
6,BEN,0.432
7,HARA,0.27
8,HCC-78,0.423
9,NCI-H322M,0.485
10,LCLC-97TM1,0.196
11,NCI-H2009,0.178
12,A-427,0.494
13,NCI-H441,0.232
14,NCI-H661,0.424
15,NCI-H1734,0.328
16,NCI-H460,0.157

row,Cell Line,relative viability
1,NCI-H2347,0.388
2,SK-LU-1,0.374
3,NCI-H1395,0.627
4,201T,0.379
5,NCI-H1915,0.508
6,HCC-827,0.474
7,LXF-289,0.594
8,NCI-H23,0.537
9,NCI-H647,0.31
10,CAL-12T,0.334
11,NCI-H1651,0.512
12,EPLC-272H,0.332
13,NCI-H2228,0.759
14,NCI-H1792,0.698
15,NCI-H1355,0.377
16,NCI-H3122,0.183

# Same assay, conditions: first compound 0.03162 µM
row,Cell Line,relative viability
1,NCI-H2405,0.554
2,HOP-62,0.458
3,HCC-44,1.08
4,SW 900,0.632
5,LU99A,0.437
6,BEN,0.478
7,HARA,0.267
8,HCC-78,0.44
9,NCI-H322M,0.492
10,LCLC-97TM1,0.215
11,NCI-H2009,0.195
12,A-427,0.537
13,NCI-H441,0.26
14,NCI-H661,0.37
15,NCI-H1734,0.348
16,NCI-H460,0.105

row,Cell Line,relative viability
1,NCI-H2347,0.425
2,SK-LU-1,0.374
3,NCI-H1395,0.621
4,201T,0.385
5,NCI-H1915,0.606
6,HCC-827,0.457
7,LXF-289,0.58
8,NCI-H23,0.504
9,NCI-H647,0.351
10,CAL-12T,0.498
11,NCI-H1651,0.535
12,EPLC-272H,0.339
13,NCI-H2228,0.912
14,NCI-H1355,0.427
15,NCI-H3122,0.18

# Same assay, conditions: first compound 0.1 µM
row,Cell Line,relative viability
1,NCI-H2405,0.514
2,HOP-62,0.462
3,HCC-44,0.993
4,SW 900,0.464
5,LU99A,0.425
6,BEN,0.45
7,HARA,0.254
8,HCC-78,0.425
9,NCI-H322M,0.48
10,LCLC-97TM1,0.209
11,NCI-H2009,0.213
12,A-427,0.529
13,NCI-H441,0.251
14,NCI-H661,0.418
15,NCI-H1734,0.345
16,NCI-H460,0.225

row,Cell Line,relative viability
1,NCI-H2347,0.389
2,SK-LU-1,0.371
3,NCI-H1395,0.621
4,201T,0.348
5,NCI-H1915,0.529
6,HCC-827,0.488
7,LXF-289,0.562
8,NCI-H23,0.412
9,NCI-H647,0.424
10,CAL-12T,0.517
11,NCI-H1651,0.483
12,EPLC-272H,0.335
13,NCI-H2228,0.729
14,NCI-H1792,0.672
15,NCI-H1355,0.397
16,NCI-H3122,0.179

# Same assay, conditions: first compound 0.3162 µM
row,Cell Line,relative viability
1,NCI-H2405,0.514
2,HOP-62,0.438
3,HCC-44,0.935
4,SW 900,0.441
5,LU99A,0.393
6,BEN,0.509
7,HARA,0.21
8,HCC-78,0.385
9,NCI-H322M,0.482
10,LCLC-97TM1,0.211
11,NCI-H2009,0.262
12,A-427,0.532
13,NCI-H441,0.205
14,NCI-H661,0.346
15,NCI-H1734,0.321
16,NCI-H460,0.121

row,Cell Line,relative viability
1,NCI-H2347,0.433
2,SK-LU-1,0.35
3,NCI-H1395,0.661
4,201T,0.356
5,NCI-H1915,0.502
6,HCC-827,0.491
7,LXF-289,0.577
8,NCI-H23,0.501
9,NCI-H647,0.362
10,CAL-12T,0.404
11,NCI-H1651,0.48
12,EPLC-272H,0.329
13,NCI-H2228,0.6
14,NCI-H1792,0.662
15,NCI-H1355,0.383
16,NCI-H3122,0.194

# Same assay, conditions: first compound 1 µM
row,Cell Line,relative viability
1,NCI-H2405,0.561
2,HOP-62,0.511
3,HCC-44,1.01
4,SW 900,0.584
5,LU99A,0.443
6,BEN,0.48
7,HARA,0.295
8,HCC-78,0.502
9,NCI-H322M,0.47
10,LCLC-97TM1,0.203
11,NCI-H2009,0.2
12,A-427,0.565
13,NCI-H441,0.254
14,NCI-H661,0.435
15,NCI-H1734,0.384
16,NCI-H460,0.219

row,Cell Line,relative viability
1,NCI-H2347,0.465
2,SK-LU-1,0.417
3,NCI-H1395,0.616
4,201T,0.364
5,NCI-H1915,0.536
6,HCC-827,0.561
7,LXF-289,0.633
8,NCI-H23,0.6
9,NCI-H647,0.506
10,CAL-12T,0.491
11,NCI-H1651,0.558
12,EPLC-272H,0.369
13,NCI-H2228,0.747
14,NCI-H1792,0.68
15,NCI-H1355,0.439
16,NCI-H3122,0.213

# Compound: CC1CC(=O)N(C2=CN=C(N=C2N1C3CCCC3)NC4=C(C=C(C=C4)C(=O)NC5CCN(CC5)C)OC)C [NPK76-II-72-1] + N=C(N)NC(=N)NCCc1ccccc1 [Phenformin] (partner 250 µM)
# Assay: as above
# Conditions: first compound 0.01 µM
# How it was run: as §1
row,Cell Line,relative viability
1,NCI-H2405,0.379
2,HOP-62,0.622
3,HCC-44,0.201
4,SW 900,0.559
5,LU99A,0.829
6,BEN,0.229
7,HARA,0.419
8,HCC-78,0.695
9,NCI-H322M,0.706
10,LCLC-97TM1,0.401
11,NCI-H2009,0.491
12,A-427,0.263
13,NCI-H441,0.945
14,NCI-H661,0.278
15,NCI-H1734,0.374
16,NCI-H460,0.501

row,Cell Line,relative viability
1,NCI-H2347,0.413
2,SK-LU-1,0.517
3,NCI-H1395,0.466
4,201T,0.423
5,NCI-H1915,0.363
6,HCC-827,0.407
7,LXF-289,0.531
8,NCI-H23,0.752
9,NCI-H647,0.46
10,CAL-12T,0.563
11,NCI-H1651,0.377
12,EPLC-272H,0.304
13,NCI-H2228,0.301
14,NCI-H1792,0.289
15,NCI-H1355,0.408
16,NCI-H3122,0.374

# Same assay, conditions: first compound 0.03162 µM
row,Cell Line,relative viability
1,NCI-H2405,0.386
2,HOP-62,0.648
3,HCC-44,0.176
4,SW 900,0.73
5,LU99A,0.814
6,BEN,0.228
7,HARA,0.408
8,HCC-78,0.684
9,NCI-H322M,0.935
10,LCLC-97TM1,0.464
11,NCI-H2009,0.513
12,A-427,0.309
13,NCI-H441,0.917
14,NCI-H661,0.255
15,NCI-H1734,0.38
16,NCI-H460,0.512

row,Cell Line,relative viability
1,NCI-H2347,0.432
2,SK-LU-1,0.585
3,NCI-H1395,0.422
4,201T,0.461
5,NCI-H1915,0.39
6,HCC-827,0.448
7,LXF-289,0.587
8,NCI-H23,0.788
9,NCI-H647,0.676
10,CAL-12T,0.56
11,NCI-H1651,0.314
12,NCI-H2228,0.345
13,NCI-H1792,0.367
14,NCI-H1355,0.458
15,NCI-H3122,0.378

# Same assay, conditions: first compound 0.1 µM
row,Cell Line,relative viability
1,NCI-H2405,0.4
2,HOP-62,0.615
3,HCC-44,0.22
4,SW 900,0.657
5,LU99A,0.855
6,BEN,0.276
7,HARA,0.486
8,HCC-78,0.684
9,NCI-H322M,0.778
10,LCLC-97TM1,0.388
11,NCI-H2009,0.446
12,A-427,0.341
13,NCI-H441,0.876
14,NCI-H661,0.282
15,NCI-H1734,0.379
16,NCI-H460,0.582

row,Cell Line,relative viability
1,NCI-H2347,0.514
2,SK-LU-1,0.662
3,NCI-H1395,0.457
4,201T,0.407
5,NCI-H1915,0.363
6,HCC-827,0.407
7,LXF-289,0.503
8,NCI-H23,0.684
9,NCI-H647,0.629
10,CAL-12T,0.562
11,NCI-H1651,0.314
12,EPLC-272H,0.259
13,NCI-H2228,0.328
14,NCI-H1792,0.16
15,NCI-H1355,0.455
16,NCI-H3122,0.389

# Same assay, conditions: first compound 0.3162 µM
row,Cell Line,relative viability
1,NCI-H2405,0.35
2,HOP-62,0.637
3,HCC-44,0.212
4,SW 900,0.664
5,LU99A,0.838
6,BEN,0.245
7,HARA,0.434
8,HCC-78,0.692
9,NCI-H322M,0.817
10,LCLC-97TM1,0.398
11,NCI-H2009,0.462
12,A-427,0.295
13,NCI-H441,0.672
14,NCI-H661,0.279
15,NCI-H1734,0.427
16,NCI-H460,0.522

row,Cell Line,relative viability
1,NCI-H2347,0.521
2,SK-LU-1,0.528
3,NCI-H1395,0.429
4,201T,0.461
5,NCI-H1915,0.34
6,HCC-827,0.409
7,LXF-289,0.516
8,NCI-H23,0.718
9,NCI-H647,0.623
10,CAL-12T,0.554
11,NCI-H1651,0.307
12,EPLC-272H,0.229
13,NCI-H2228,0.324
14,NCI-H1792,0.287
15,NCI-H1355,0.45
16,NCI-H3122,0.378

# Same assay, conditions: first compound 1 µM
row,Cell Line,relative viability
1,NCI-H2405,0.419
2,HOP-62,0.683
3,HCC-44,0.271
4,SW 900,0.699
5,LU99A,0.95
6,BEN,0.253
7,HARA,0.509
8,HCC-78,0.665
9,NCI-H322M,0.829
10,LCLC-97TM1,0.416
11,NCI-H2009,0.477
12,A-427,0.397
13,NCI-H441,0.886
14,NCI-H661,0.245
15,NCI-H1734,0.425
16,NCI-H460,0.522

row,Cell Line,relative viability
1,NCI-H2347,0.395
2,SK-LU-1,0.537
3,NCI-H1395,0.405
4,201T,0.433
5,NCI-H1915,0.357
6,HCC-827,0.404
7,LXF-289,0.497
8,NCI-H23,0.85
9,NCI-H647,0.533
10,CAL-12T,0.619
11,NCI-H1651,0.318
12,EPLC-272H,0.343
13,NCI-H2228,0.296
14,NCI-H1792,0.422
15,NCI-H1355,0.456
